target: human fatty acid synthase FASN (Homo sapiens (Human), UniProt P49327); experiment: Biochemical activity testing of human fatty acid synthase FASN (NADPH fluorescence intensity enzyme assay); conditions: human recombinant full-length fatty acid synthase
Text: Biochemical activity testing of human fatty acid synthase FASN
Fatty acid synthase FASN is a multifunctional enzyme with seven catalytic activities thereby synthesising long chain fatty acids especially palmitoyl-CoA in the presence of co-factor NADPH starting from the substrates acetyl-CoA and malonyl-CoA. The reductive synthesis is realized by the oxidation of NADPH to NADP. Since NADPH has a high fluorescence intensity quantum yield compared to NADP with excitation at 340 nm and emission at 460 nm, the reaction can be monitored via the decrease in fluorescence intensity. The biochemical FASN activity testing was performed as 384 well two-time-point kinetic fluorescence intensity assay format in Greiner low volume medium binding 384-well black microtiter plates in a total assay volume of 8 μl and was used for high throughput screen. In each well 3 μl 40 nM human recombinant full-length fatty acid synthase (produced in-house in SF9 cells) were dispensed in the following assay buffer: 50 mM potassium phosphate buffer pH 7.0, 0.005% (w/v) BSA, 2 mM Glutathione, 0.02% Tween-20. Then 2 μl of 200 μM NADPH in assay buffer were added, followed by the addition of the test compounds in 10 dilution concentrations starting with 30 μM (final concentration) to get a final DMSO content of 1% (v/v). The mixture was incubated for at least 15 min at room temperature. After the pre-incubation the enzymatic reaction was started by the addition of 2 μl substrate solution (80 μM acetyl-CoA, 240 μM malonyl-CoA). A first fluorescence intensity measurement (time point one) was performed with an Envision multimode reader (Perkin Elmer LAS Germany GmbH) at excitation wavelength 340 nm (lamp mode) and emission wavelength 460 nm. The reaction was incubated for 30 minutes at room temperature. After this the fluorescence intensity was measured again in the Envision using the same parameters as described above (second time point measurement). The data were analysed by subtracting the first time point measurement value from the second time point measurement value (after the enzymatic reaction). The differences of the emission signals were determined. These reflect directly the conversion rate of NADPH. The full value used was the inhibitor-free reaction. A pharmacological zero value was used like GSK837149A (Sigma-Aldrich) in a final concentration of 5-10 μM. The inhibitory values (IC50) were determined using either the program Symyx Assay Explorer® or Condosseo® from GeneData.

human fatty acid synthase FASN, sequence (P49327 whole entry): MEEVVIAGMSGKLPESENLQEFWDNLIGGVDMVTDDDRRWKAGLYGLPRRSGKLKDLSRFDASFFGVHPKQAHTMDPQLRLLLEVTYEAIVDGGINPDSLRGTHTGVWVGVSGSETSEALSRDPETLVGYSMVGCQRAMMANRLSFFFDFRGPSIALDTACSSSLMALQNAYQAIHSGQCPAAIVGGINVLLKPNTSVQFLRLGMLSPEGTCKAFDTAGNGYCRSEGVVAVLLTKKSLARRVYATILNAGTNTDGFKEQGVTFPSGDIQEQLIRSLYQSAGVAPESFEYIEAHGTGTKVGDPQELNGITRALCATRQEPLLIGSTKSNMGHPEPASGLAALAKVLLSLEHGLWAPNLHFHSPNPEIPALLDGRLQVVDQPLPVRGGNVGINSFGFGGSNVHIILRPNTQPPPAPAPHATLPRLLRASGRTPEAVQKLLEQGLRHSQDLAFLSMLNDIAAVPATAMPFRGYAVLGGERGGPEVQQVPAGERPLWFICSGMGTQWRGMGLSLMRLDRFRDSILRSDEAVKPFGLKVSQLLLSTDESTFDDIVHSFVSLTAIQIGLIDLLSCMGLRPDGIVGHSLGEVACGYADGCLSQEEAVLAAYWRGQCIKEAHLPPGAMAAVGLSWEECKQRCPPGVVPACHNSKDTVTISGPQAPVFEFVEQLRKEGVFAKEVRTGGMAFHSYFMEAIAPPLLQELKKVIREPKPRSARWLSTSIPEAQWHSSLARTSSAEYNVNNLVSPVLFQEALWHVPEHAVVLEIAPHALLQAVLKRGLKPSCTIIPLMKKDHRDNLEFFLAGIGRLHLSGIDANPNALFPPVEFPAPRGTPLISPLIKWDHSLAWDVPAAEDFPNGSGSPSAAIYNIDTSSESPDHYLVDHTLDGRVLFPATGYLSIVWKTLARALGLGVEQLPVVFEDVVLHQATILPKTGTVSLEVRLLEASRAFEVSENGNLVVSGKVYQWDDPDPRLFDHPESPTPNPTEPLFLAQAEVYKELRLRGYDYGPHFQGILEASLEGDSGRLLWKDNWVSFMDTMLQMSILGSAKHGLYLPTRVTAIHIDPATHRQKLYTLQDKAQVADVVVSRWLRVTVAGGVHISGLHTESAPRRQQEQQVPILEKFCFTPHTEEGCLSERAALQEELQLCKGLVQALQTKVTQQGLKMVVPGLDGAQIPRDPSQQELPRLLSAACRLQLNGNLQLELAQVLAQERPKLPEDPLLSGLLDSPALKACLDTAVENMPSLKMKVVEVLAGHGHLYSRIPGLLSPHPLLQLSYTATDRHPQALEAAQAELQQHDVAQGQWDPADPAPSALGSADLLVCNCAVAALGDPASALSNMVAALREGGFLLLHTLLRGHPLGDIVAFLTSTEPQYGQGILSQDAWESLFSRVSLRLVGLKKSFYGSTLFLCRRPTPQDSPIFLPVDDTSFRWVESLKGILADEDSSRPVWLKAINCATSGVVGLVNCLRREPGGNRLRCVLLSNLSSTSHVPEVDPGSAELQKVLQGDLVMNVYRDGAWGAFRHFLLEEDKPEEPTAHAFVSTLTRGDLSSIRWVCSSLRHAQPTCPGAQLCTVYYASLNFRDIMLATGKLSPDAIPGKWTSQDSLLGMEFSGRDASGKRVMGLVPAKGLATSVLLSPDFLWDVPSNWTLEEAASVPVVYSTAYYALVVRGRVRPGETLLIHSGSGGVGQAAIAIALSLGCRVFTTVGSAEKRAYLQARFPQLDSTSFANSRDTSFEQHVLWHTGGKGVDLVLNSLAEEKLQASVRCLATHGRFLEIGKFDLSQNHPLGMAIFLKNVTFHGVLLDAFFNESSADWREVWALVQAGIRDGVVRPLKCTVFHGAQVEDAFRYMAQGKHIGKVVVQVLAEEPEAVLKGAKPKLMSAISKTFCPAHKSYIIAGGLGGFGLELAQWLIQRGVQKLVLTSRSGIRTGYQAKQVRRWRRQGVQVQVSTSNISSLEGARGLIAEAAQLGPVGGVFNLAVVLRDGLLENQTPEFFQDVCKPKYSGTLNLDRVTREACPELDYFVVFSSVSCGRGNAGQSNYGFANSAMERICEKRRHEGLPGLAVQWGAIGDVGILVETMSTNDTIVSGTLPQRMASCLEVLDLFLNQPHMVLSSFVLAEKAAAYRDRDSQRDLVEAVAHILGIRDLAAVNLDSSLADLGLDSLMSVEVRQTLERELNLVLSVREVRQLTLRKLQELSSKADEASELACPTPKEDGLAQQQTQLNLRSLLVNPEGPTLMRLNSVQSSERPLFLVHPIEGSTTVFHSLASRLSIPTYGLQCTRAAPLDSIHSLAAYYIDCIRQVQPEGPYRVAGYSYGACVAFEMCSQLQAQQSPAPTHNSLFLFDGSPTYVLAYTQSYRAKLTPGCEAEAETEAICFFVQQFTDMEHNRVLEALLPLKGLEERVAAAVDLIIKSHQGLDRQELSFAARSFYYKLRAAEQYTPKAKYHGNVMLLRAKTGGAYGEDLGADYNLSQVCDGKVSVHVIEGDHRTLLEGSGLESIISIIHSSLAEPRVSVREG

SMILES | IC50 [µM]
CCC(=O)N[C@H]1CC[C@@H](N(C)C(=O)c2ccc(-c3ccc4cnn(C)c4c3)cc2)C1 [Compound A74, N-methyl-4-(1-methyl-1H-indazol-6-yl)-N-((1R,3S)-3-propionylamino-cyclopentyl)-benzamide] | < 0.3
CN(C(=O)c1cnc(-c2nc3ccc(Cl)cc3o2)cn1)[C@@H]1CC[C@H](NC(=O)[C@@H]2CCCO2)C1 [Compound A159, 5-(6-chloro-benzoxazol-2-yl)-pyrazine-2-carboxylic acid methyl-{(1R,3S)-3-[((S)-tetrahydro-furan-2-carbonyl)-amino]-cyclopentyl}-amide] | < 0.3
C[C@H](O)C(=O)N[C@H]1CC[C@@H](N(C)C(=O)c2ccc(-c3nc4ccccc4o3)cc2)C1 [Compound A37, 4-benzoxazol-2-yl-N-[(1R,3S)-3-((S)-2-hydroxy-propionylamino)-cyclopentyl]-N-methyl-benzamide] | < 0.3
CC(=O)N[C@@H]1CC[C@@H](N(C)C(=O)c2ccc(-c3nc4ccccc4o3)cc2)C1 [Compound A166, N-((1R,3R)-3-acetylamino-cyclopentyl)-4-benzooxazol-2-yl-N-methyl-benzamide] | 3 to 50
CCC(=O)N[C@H]1CC[C@@H](N(C)C(=O)c2ccc(-c3ccc4nccn4c3)nc2)C1 [Compound A144, 6-imidazo[1,2-a]pyridin-6-yl-N-methyl-N-((1R,3S)-3-propionylamino-cyclopentyl)-nicotinamide] | < 0.3
CCCC1CCC(c2ccc(-c3ccc(C(=O)N(C)[C@@H]4CC[C@H](NC(=O)CC)C4)cc3)cc2)OC1 (stereo partly drawn) [Compound A89, 4′-(5-propyl-tetrahydro-pyran-2-yl)-biphenyl-4-carboxylic acid methyl-((1R,3S)-3-propionylamino-cyclopentyl)-amide] | 0.3 to 3
CCC(=O)N[C@H]1CC[C@@H](N(C)C(=O)c2ccc(-c3ccc(C(C)C)cc3)cc2)C1 [Compound A96, 4′-isopropyl-biphenyl-4-carboxylic acid methyl-((1R,3S)-3-propionylamino-cyclopentyl)-amide] | 0.3 to 3
CCC(=O)N[C@H]1CC[C@@H](N(C)C(=O)c2ccc(-c3cnc4ccccc4c3)cc2)C1 [Compound A72, N-methyl-N-((1R,3S)-3-propionylamino-cyclopentyl)-4-quinolin-3-yl-benzamide] | < 0.3
CN(C(=O)c1ccc(-c2nc3ccccc3o2)cc1)[C@@H]1CC[C@H](NC(=O)C2CC2)C1 [Compound A2, 4-benzoxazol-2-yl-N-[(1R,3S)-3-(cyclopropanecarbonyl-amino)-cyclopentyl]-N-methyl-benzamide] | < 0.3
CN(C(=O)c1ccc(-c2nc3ccccc3o2)cc1)[C@@H]1CC[C@H](NC(=O)Cc2ccccc2)C1 [Compound A23, 4-benzoxazol-2-yl-N-methyl-N-((1R,3S)-3-phenylacetylamino-cyclopentyl)-benzamide] | < 0.3
CCC(=O)N[C@H]1CC[C@@H](N(C)C(=O)c2ccc(-c3ccc4c(c3)C(F)(F)C(=O)N4)nc2)C1 [Compound A147, 6-(3,3-difluoro-2-oxo-2,3-dihydro-1H-indol-5-yl)-N-methyl-N-((1R,3S)-3-propionylamino-cyclopentyl)-nicotinamide] | 3 to 50
CCC(=O)N[C@H]1CC[C@@H](N(C)C(=O)c2ccc(-c3ccc4cc[nH]c4c3F)nc2)C1 [Compound A157, 6-(7-fluoro-1H-indol-6-yl)-N-methyl-N-((1R,3S)-3-propionylamino-cyclopentyl)-nicotinamide] | < 0.3
CCC(=O)N[C@H]1CC[C@@H](N(C)C(=O)c2ccc(-c3ccc4c(c3)OCCO4)cc2)C1 [Compound A87, 4-(2,3-dihydro-benzo[1,4]dioxin-6-yl)-N-methyl-N-((1R,3S)-3-propionylamino-cyclopentyl)-benzamide] | < 0.3
CCC(=O)N[C@H]1CC[C@@H](N(C)C(=O)c2ccc(-c3cc(F)c(C#N)c(F)c3)cc2)C1 [Compound A61, 4′-cyano-3′,5′-difluoro-biphenyl-4-carboxylic acid methyl-((1R,3S)-3-propionylamino-cyclopentyl)-amide] | 3 to 50
CN(C(=O)c1ccc(-c2nc3cc(Cl)ccc3o2)cc1)[C@@H]1CC[C@H](NC(=O)[C@@H]2CCCO2)C1 [Compound A174] | < 0.3
CCC(=O)N[C@H]1CC[C@@H](N(C)C(=O)c2ccc(-c3ccc4[nH]ncc4c3)cc2)C1 [Compound A84, 4-(1H-indazol-5-yl)-N-methyl-N-((1R,3S)-3-propionylamino-cyclopentyl)-benzamide] | < 0.3
CCC(=O)N[C@H]1CC[C@@H](N(C)C(=O)c2ccc(-c3ccc4c(c3)NC(=O)C4)cc2)C1 [Compound A60, N-methyl-4-(2-oxo-2,3-dihydro-1H-indol-6-yl)-N-((1R,3S)-3-propionylamino-cyclopentyl)-benzamide] | < 0.3
CC(=O)N[C@H]1CC[C@@H](N(C)C(=O)c2ccc(-c3nc4ccccc4o3)cc2)C1 [Compound A18, N-((1R,3S)-3-acetylamino-cyclopentyl)-4-benzooxazol-2-yl-N-methyl-benzamide] | < 0.3
CCC(=O)N[C@H]1CC[C@@H](N(C)C(=O)c2ccc(-c3ccc(C(C)(C)C)cc3)cc2)C1 [Compound A55, tert-butyl-biphenyl-4-carboxylic acid methyl-((1R,3S)-3-propionylamino-cyclopentyl)-amide] | 3 to 50
CCC(=O)N[C@H]1CC[C@@H](N(C)C(=O)c2ccc(-c3ccc(OC(F)F)cc3)cc2)C1 [Compound A85, 4′-difluoromethoxy-biphenyl-4-carboxylic acid methyl-((1R,3S)-3-propionylamino-cyclopentyl)-amide] | < 0.3
CCC(=O)N[C@H]1CC[C@@H](N(C)C(=O)c2ccc(-c3cc4cn[nH]c4cc3C)cc2)C1 [Compound A102, N-methyl-4-(6-methyl-1H-indazol-5-yl)-N-((1R,3S)-3-propionylamino-cyclopentyl)-benzamide] | < 0.3
CCC(=O)N[C@H]1CC[C@@H](N(C)C(=O)c2ccc(-c3ccc(OC(F)(F)F)cc3)cc2)C1 [Compound A62, 4′-trifluoromethoxy-biphenyl-4-carboxylic acid methyl-((1R,3S)-3-propionylamino-cyclopentyl)-amide] | 0.3 to 3
CCC(=O)N[C@H]1CC[C@@H](N(C)C(=O)c2ccc(-c3nc4cccc(F)c4o3)cc2)C1 [Compound A49, 4-(7-fluoro-benzoxazol-2-yl)-N-methyl-N-((1R,3S)-3-propionylamino-cyclopentyl)-benzamide] | < 0.3
CCC(=O)N[C@H]1CC[C@@H](N(C)C(=O)c2cnc(-c3nc4ccc(Cl)cc4o3)cn2)C1 [Compound A148, 5-(6-chloro-benzoxazol-2-yl)-pyrazine-2-carboxylic acid methyl-((1R,3S)-3-propionylamino-cyclopentyl)-amide] | 0.3 to 3
CCC(=O)N[C@H]1CC[C@@H](N(C)C(=O)c2ccc(-c3ccc(OCC4CC4)cc3)cc2)C1 [Compound A70, 4′-cyclopropylmethoxy-biphenyl-4-carboxylic acid methyl-((1R,3S)-3-propionylamino-cyclopentyl)-amide] | < 0.3
CCC(=O)N[C@H]1CC[C@@H](N(C)C(=O)c2ccc(-c3ccc(OC)cc3OC)cc2)C1 [Compound A88, 2′,4′-dimethoxy-biphenyl-4-carboxylic acid methyl-((1R,3S)-3-propionylamino-cyclopentyl)-amide] | < 0.3

From US9670142B2, “1,3-diaminocyclopentane carboxamide derivatives” (Merck Patent GmbH, priority 2013, dated 2017)
